Test results from patent US7491794B2, “Macrocyclic compounds as inhibitors of viral replication” (Intermune, Inc., priority 2003, dated 2009).

What follows are compounds tested against T1, NS3-NS4A protease (Hepatitis C virus genotype 1a, UniProt P27958) (assay: NS3-NS4A protease assay (NS3 inhibition assay, RETS1 substrate), Section B). Conditions: read-out: NS3-NS4A IC50.
T1 construct: Recombinant E. coli or Baculovirus full-length NS3 was diluted to 3.33 μM with assay buffer; made in house; host or cells: E. coli or baculovirus (BV) system
Assay type: biochemical
Protocol: NS3 complex formation with NS4A-2
Recombinant E. coli or Baculovirus full-length NS3 was diluted to 3.33 μM with assay buffer and the material transferred to an eppendorf tube and place in water bath in 4° C. refrigerator. The appropriate amount of NS4A-2 to 8.3 mM in assay buffer was added to equal the volume of NS3 in step 2.1.1 (conversion factor −3.8 mg/272 μL assay buffer). The material was transferred to an eppendorf tube and placed in a water bath in a 4° C. refrigerator.
After equilibration to 4° C., equal volumes of NS3 and NS4A-2 solutions were combined in an eppendorf tube, mixed gently with a manual pipettor, and the mixture incubated for 15 minutes in the 4° C. water bath. Final concentrations in the mixture were 1.67 μM NS3, 4.15 mM NS4A-2 (2485-fold molar excess NS4A-2).
After 15 minutes at 4° C., the NS3/NS4A-2 eppendorf tube was removed and placed in a room temperature water bath for 10 minutes. NS3/NS4A-2 was aliquoted at appropriate volumes and store at −80° C. (E. coli NS3 run at 2 nM in assay, aliquot at 25 μL. BV NS3 run at 3 nM in assay, aliquot at 30 μL.
Step 2.2.5. Sample compounds were dissolved to 10 mM in DMSO then diluted to 2.5 mM (1:4) in DMSO.
Step 2.2.6. The E. coli NS3/NS4A-2 was diluted to 4 nM NS3 (1:417.5 of 1.67 μM stock−18 μL 1.67 μM stock+7497 μL assay buffer).
The BV NS3/NS4A-2 was diluted to 6 nM NS3 (1:278.3 of 1.67 μM stock−24 μL 1.67 μM stock+6655 μL assay buffer).
Step 2.2.7. Using the manual multichannel pipettor, and being careful not to introduce bubbles into the plate, 50 μL assay buffer was added to wells A01-H01 of a black Costar 96-well polypropylene storage plate.
Step 2.2.8. Using the manual multichannel pipettor, and being careful not to introduce bubbles into the plate, 50 μL of diluted NS3/NS4A-2 from step 2.2.6 was added to wells A02-H12 of plate in step 2.2.7.
Step 2.2.9. Using the manual multichannel pipettor, and being careful not to introduce bubbles into the plate, 25 μL of the wells in drug dilution plate in step 2.2.5 were transferred to corresponding wells in assay plate in step 2.2.8. The tips on multichannel pipettor were changed for each row of compounds transferred.
Step 2.2.10. Using the manual multichannel pipettor, and being careful not to introduce bubbles into the plate, the wells from the assay plate in step 2.2.9 were mixed by aspirating and dispensing 35 μL of the 75 μL in each well five times. The tips on multichannel pipettor were changed for each row of wells mixed.
Step 2.2.11. The plate was covered with a polystyrene plate lid, and the plate from step 2.2.10 containing NS3 protease and sample compounds was pre-incubated 10 minutes at room temperature.
While the plate from step 2.2.11 was pre-incubating, the RETS1 substrate was diluted in a 15 mL polypropylene centrifuge tube. The RETS1 substrate was diluted to 8 μM (1:80.75 of 646 μM stock−65 μL 646 μM stock+5184 μL assay buffer).
After the plate in step 2.2.11 was done pre-incubating, and using the manual multichannel, 25 μL of substrate was added to all wells on the plate. The contents of the wells were quickly mixed, as in step 2.2.10, but mixing 65 μL of the 100 μL in the wells.
The plate was read in kinetic mode on the Molecular Devices SpectraMax Gemini XS plate reader. Reader settings: Read time: 30 minutes, Interval: 36 seconds, Reads: 51, Excitation λ: 335 nm, Emission λ: 495 nm, cutoff: 475 nm, Automix: off, Calibrate: once, PMT: high, Reads/well: 6, Vmax pts: 21 or 28/51 depending on length of linearity of reaction.
IC50s were determined using a four parameter curve fit equation, and converted to Ki's using the following Km's:
where Ki=IC50/(1+[S]/Km))

T1 sequence (P27958 1027-1657): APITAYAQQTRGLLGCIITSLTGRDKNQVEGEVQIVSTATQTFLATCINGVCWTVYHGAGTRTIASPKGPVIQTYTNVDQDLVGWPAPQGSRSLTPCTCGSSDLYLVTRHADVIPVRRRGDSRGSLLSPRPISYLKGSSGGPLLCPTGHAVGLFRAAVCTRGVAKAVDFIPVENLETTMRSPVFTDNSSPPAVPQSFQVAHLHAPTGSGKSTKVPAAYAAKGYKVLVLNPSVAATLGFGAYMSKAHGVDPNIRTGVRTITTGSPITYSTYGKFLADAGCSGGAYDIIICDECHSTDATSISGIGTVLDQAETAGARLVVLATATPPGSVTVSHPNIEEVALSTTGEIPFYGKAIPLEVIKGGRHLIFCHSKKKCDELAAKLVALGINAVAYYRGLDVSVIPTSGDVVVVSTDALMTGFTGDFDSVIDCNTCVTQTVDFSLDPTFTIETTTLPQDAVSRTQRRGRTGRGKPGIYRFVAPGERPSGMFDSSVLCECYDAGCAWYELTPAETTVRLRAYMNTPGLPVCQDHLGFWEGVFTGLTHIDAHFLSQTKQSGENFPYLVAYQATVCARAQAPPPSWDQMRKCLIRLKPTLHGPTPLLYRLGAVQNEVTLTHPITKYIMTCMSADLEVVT

Row | Compound | IC50
1 | O=C(N[C@H]1CCCCC/C=C\[C@@H]2C[C@@]2(C(=O)O)NC(=O)[C@@H]2C[C@@H](OC(=O)N3Cc4cc(Cl)c(Cl)cc4C3)CN2C1=O)O[C@@H]1CCOC1 [AR00320445, (1S,4R,6S,14S,18R)-18-(5,6-Dichloro-1,3-dihydro-isoindole-2-carbonyloxy)-2,15-dioxo-14-(tetrahydro-furan-3R-yloxycarbonylamino)-3,16-diaza-tricyclo[14.3.0.0^4,6]nonadec-7-ene-4-carboxylic acid] | < 10 µM
2 | CC(C)(C)OC(=O)N[C@H]1CCCCC/C=C\[C@@H]2C[C@@]2(C(=O)O)NC(=O)[C@@H]2C[C@@H](OC(=O)N3Cc4ccc(OCCN5CCOCC5)cc4C3)CN2C1=O [AR00371946, (1S,4R,6S,14S,18R)-14-tert-Butoxycarbonylamino-18-[5-(2-morpholin-4-yl-ethoxy)-1,3-dihydro-isoindole-2-carbonyloxy]-2,15-dioxo-3,16-diaza-tricyclo[14.3.0.0^4,6]nonadec-7-ene-4-carboxylic acid] | < 0.1 µM
3 | COc1ccc2c(c1)CCN(C(=O)O[C@@H]1C[C@H]3C(=O)N[C@]4(C(=O)O)C[C@H]4/C=C\CCCCC[C@H](NC(=O)OC(C)(C)C)C(=O)N3C1)C2CN1CCCCC1 (stereo partly drawn) [AR00333248, (1S,4R,6S,14S,18R)-14-tert-Butoxycarbonylamino-18-(6-methoxy-1-piperidin-1-ylmethyl-3,4-dihydro-1H-isoquinoline-2-carbonyloxy)-2,15-dioxo-3,16-diaza-tricyclo[14.3.0.0^4,6]nonadec-7-ene-4-carboxylic acid] | < 10 µM
4 | Cc1nc2c(s1)CN(C(=O)O[C@@H]1C[C@H]3C(=O)N[C@]4(C(=O)O)C[C@H]4/C=C\CCCCC[C@H](NC(=O)OC(C)(C)C)C(=O)N3C1)CC2 [AR00304158, (1S,4R,6S,14S,18R)-14-tert-Butoxycarbonylamino-18-(2-methyl-6,7-dihydro-4H-thiazolo[5,4-c]pyridine-5-carbonyloxy)-2,15-dioxo-3,16-diaza-tricyclo[14.3.0.0^4,6]nonadec-7-ene-4-carboxylic acid] | < 50 µM
5 | COc1ccccc1C1CCN(C(=O)O[C@@H]2C[C@H]3C(=O)N[C@]4(C(=O)O)C[C@H]4/C=C\CCCCC[C@H](NC(=O)OC(C)(C)C)C(=O)N3C2)CC1 [AR00320576, (1S,4R,6S,14S,18R)-14-tert-Butoxycarbonylamino-18-[4-(2-methoxy-phenyl)-piperidine-1-carbonyloxy]-2,15-dioxo-3,16-diaza-tricyclo[14.3.0.0^4,6]nonadec-7-ene-4-carboxylic acid] | < 10 µM
6 | O=C(N[C@H]1CCCCC/C=C\[C@@H]2C[C@@]2(C(=O)O)NC(=O)[C@@H]2C[C@@H](OC(=O)N3CCc4ccccc4C3)CN2C1=O)OC1CCCC1 [AR00247310, (1S,4R,6S,14S,18R)-14-Cyclopentyloxycarbonylamino-18-(3,4-dihydro-1H-isoquinoline-2-carbonyloxy)-2,15-dioxo-3,16-diaza-tricyclo[14.3.0.0^4,6]nonadec-7-ene-4-carboxylic acid] | < 1 µM
7 | CC(C)(C)OC(=O)N[C@H]1CCCCC/C=C\[C@@H]2C[C@@]2(C(=O)O)NC(=O)[C@@H]2C[C@@H](NC(=O)N3CCCc4ccccc43)CN2C1=O [AR00304160, (1S,4R,6S,14S,18R)-14-tert-Butoxycarbonylamino-18-[(3,4-dihydro-2H-quinoline-1-carbonyl)-amino]-2,15-dioxo-3,16-diaza-tricyclo[14.3.0.0^4,6]nonadec-7-ene-4-carboxylic acid] | < 50 µM
8 | CC(C)(C)OC(=O)N[C@H]1CCCCC/C=C\[C@@H]2C[C@@]2(C(=O)O)NC(=O)[C@@H]2C[C@@H](OC(=O)N3CCc4cccc(C(F)(F)F)c4C3)CN2C1=O [AR00294382, (1S,4R,6S,14S,18R)-14-tert-Butoxycarbonylamino-2,15-dioxo-18-(8-trifluoromethyl-3,4-dihydro-1H-isoquinoline-2-carbonyloxy)-3,16-diaza-tricyclo[14.3.0.0^4,6]nonadec-7-ene-4-carboxylic acid] | < 1 µM
